Measurements published in patent publication US20230165772A1, “STABILIZED COSMETIC COMPOSITIONS WITH N, N'-DI-ACETYL CYSTINE” (Conopco, Inc., d/b/a UNILEVER, priority 2020, published 2023).
Entries after “also recorded” stand apart in the source; their conditions may differ. Blank lines part the entries; values can stand above or below the compound they belong to.

Key:
[1] = Odor and H2S generation of 4-alkylresorcinol solutions during storage; assay type: physicochemical; conditions: as stabilizer of 4-substituted resorcinols
Description: (§1) Samples were prepared by dissolving 4-hexylresorcinol (HR) (200 mg) or 4-ethylresorcinol (ER) (200 mg) in DI water:butylene glycol (4:1; 20 ml) to generate a clear colorless homogeneous solution. A portion of each solution (5 ml) was added to a 20 ml scintilation vial containing either niacinamide (B3) (50 mg), NDAC (N,N′-diacetyl-L-cystine) (50 mg), NACys (N-acetyl-L-cysteine) (50 mg), B3 (50 mg)+NDAC (50 mg) or B3 (50 mg)+NACys (50 mg). A hydrogen sulfide (H2S) test strip (Sigma) was placed above the sample solution and the samples sealed. Odor and H2S generation (unchanged test strip white color=no H2S generated; changed test strip brown/black color=H2S generated) were monitored for 2 weeks at R.T. (about 20 to about 22° C.).

[2] = HPLC quantitation of 4-hexylresorcinol (HR) remaining after storage; assay type: physicochemical
Description: The amount of 4-hexylresorcinol (HR) or 4-ethylresorcinol (ER) present in each of the samples used for the color measurements was quantitated after 2 weeks @ R.T. (˜20-22° C.) by high performance liquid chromatography (HPLC). A sample aliquot (100 uL) from each of the color measurement solutions was diluted with DI water:acetonitrile (1:1, 900 uL) to generate test samples (1 ml). An aliquot (10 uL) from each test sample was injected into a Waters 2695 Separations Module, chromatographed and separated on a Restek Pinnacle DB C18 (5 μm, 4.6×150 mm) column operated at 30° C. and the 4-alkylresorcinols monitored using a Waters 2996 Photodiode Array Detector set @ 281 nm. […] Standard control samples of HR at 1×, 5×higher and 5×lower concentrations were prepared fresh and immediately analysed; standard curves were generated within the test sample range and linearity was confirmed.
All samples were analyzed in duplicate and the mean value reported. The amount of 4-alkylresorcinol present for each test sample after 2 weeks was determined by measuring the chromatographic peak area under the curve @ 281 nm for HR and expressed as the percent ratio over the corresponding chromatographic peak area under the curve @ 281 nm for the freshly prepared control sample.

[3] = Color of 4-alkylresorcinol solutions after storage (visual appearance and L*a*b*, Labscan XE); assay type: physicochemical
Description: as §1
After 2 weeks of storage at R.T. (about 20 to about 22° C.), the color of each solution was assessed visually. Additionally, L*a*b* measurements determined experimentally using a Labscan XE instrument (Hunter Associates Labs Inc., Reston, Va.) and processed with Universal Software (version 4.10). The L* parameter measures darkness and lightness and ranges from black (L*=0) to white (L*=100). The a* parameter measures color content and intensity ranging from green (a*<0) to neutral grey (a*=0) to red (a*>0). The b* parameter also measures color content and intensity ranging from blue (b*<0) to neutral grey (b*=0) to yellow (b*>0).

[4] = biologically acceptable vehicle, neutral pH range; cited from earlier work
[5] = freshly prepared solution of HR

SMILES: CCOC(=O)[C@@H](N)CSSC[C@H](N)C(=O)OCC [DEC, Cystine diethyl ester]
sulfurous odor generation by the stabilizer (in words) [1]: sulfurous odor generating

SMILES: N[C@@H](CSSC[C@H](N)C(=O)O)C(=O)O [cystine]
solubility [4]: extremely low

Now from value to compound, other results behind:

decomposition of HR upon HPLC analysis [2, 5]: no decomposition | color of freshly prepared solution [3, 5]: colorless
SMILES: CCCCCCc1ccc(O)cc1O [HR, 4-hexylresorcinol]

stabilizing resorcinol derivatives (in words) [2]: effective
SMILES: CC(=O)N[C@@H](CS)C(=O)O [NACys, N-acetyl-L-cysteine]
sulfurous odor generation by the stabilizer (in words) [1]: generates sulforous odor; also recorded: sulfurous odor generating; also recorded: upleasant sulfurous odor

prevention of color formation / discoloration (in words) ([3]; after 2 weeks at R.T., in the presence or absence of B3): effective | sulfurous odor generation by the stabilizer (in words) [1]: no sulfurous odor generation
SMILES: CC(=O)N[C@@H](CSSC[C@H](NC(C)=O)C(=O)O)C(=O)O [NDAC, N,N′-diacetyl-L-Cystine]
